One compound from patent US20240366649A1, “4-ETHYNYL-3-HYDROXY-TETRAHYDROFURANYL-ADENINE PHOSPHORAMIDATES AND RELATED COMPOUNDS AND THEIR USE IN TREATING MEDICAL CONDITIONS” (ROME THERAPEUTICS, INC., priority 2021, published 2024) can be followed below.

Assay [1] relates to Esophageal cancer KYSE-70 cells. The experiment in a line: Cancer cell viability assay with 3D cell colonies (CellTiter-Glo), KYSE-70. Particulars: Homo sapiens, 168 h; KYSE-70, 3D methylcellulose colonies, 7 days. The assay is classed as cell-based. On the procedure:
(§1) Cancer cell lines were cultured in the following media: • Ovarian cancer OVCAR-8 cells—RPMI media containing 10% FBS • Ovarian cancer SK-OV-3 cells—McCoy's 5a media containing 10% FBS • Ovarian cancer SW756 cells—L-15 (100% air)+10% FBS • Esophageal cancer TE-1 cells—RPMI-1640+10% FBS • Esophageal cancer KYSE-410 cells—RPMI-1640+5˜10% FBS • Esophageal cancer KYSE-70 cells—RPMI-1640+10% h.i.FBS. • Pharyngeal cancer FaDu cells—MEM+0.01 mM NEAA+10% FBS
(§2) Cell colony formation was tested using a 3D methylcellulose-based CellTiter-Glo (CTG) viability assay (Cat. No: G7573, Promega). Briefly, cells were inoculated into 96-well plates (at 1,500 cells per well) into a solution of 0.65% methylcellulose in growth media and incubated overnight at 37° C. in 5% CO2. The next day, serially diluted test compound (islatravir, 4′-ethynyl-2-fluoro-2′-deoxyadenosine) or positive control (cisplatin, Cat. No. 6J015A89, Qilu Pharma) were added at the indicated concentrations, and the cells were incubated for 7 days. On day seven, 100 μL of CTG reagent was added, and the plates were incubated at room temperature for 20 min. Luminescence was read on an Envision Multi Label Reader according to manufacturer's instructions. IC50 values were determined using the following calculation: […]
Background: Cellular ATP, detected with luciferase, serves as a proxy for viable cell number.

Assay [2] relates to interferon-stimulated gene (ISG) expression. The experiment in a line: In vivo decitabine challenge model. Also on record: species or system C57BL/6 mice. Conditions: mice; decitabine i.p. 5 mg/kg and islatravir p.o. 0.6-6.0 mg/kg once a day Day 0 to Day 4; IFIT2 v. GAPDH. On the procedure:
Twenty 9-11 week old C57BL/6 mice were acclimated to the lab for at least 5 days. Islatravir (4′-ethynyl-2-fluoro-2′-deoxyadenosine) was prepared in a 0.5% methylcellulose solution for p.o. administration. Decitabine (Sigma) was dissolved in sterile PBS (pH 7.4) and dosed within 30 minutes of preparation of the solution. Doses of both islatravir and decitabine were administered once a day, every day from Day 0 to Day 4.
On Day 0, mice were split into four groups of five mice and given their first dose of decitabine (i.p., 5 mg/kg) and […]. Dosing groups were:
Decitabine and islatravir were administered daily from Day 0 to Day 4. All mice were euthanized 1 hour after the last dose administration on Day 4. Spleens, liver, and terminal colon were collected, along with plasma from each animal. The fold changes in interferon-stimulated gene (ISG) expression was calculated by first normalizing to GAPDH gene using the Delta CT method. The CT (gene of interest)−CT (reference gene) was calculated to generate a delta CT for all samples. The fold change was then calculated by taking the […](Delta CT(control)−Delta CT (experimental). The control in this example was the PBS control animal group. The Taqman duplex assay (Thermo Fisher 4331182 and 4448489) was used according to the manufacturer's instructions to determine levels of GAPDH v. IFIT2.

Assay [3] has as its system IFN production in THP1 TREX1 KO cells. The experiment in a line: Cellular assay for altering IFN production in THP1 TREX1 KO cells. The assay is classed as cell-based. Particulars: FIG. 6-8, % induction versus compound concentration. On the procedure: THP1-Dual™ KO-TREX1 cells were purchased from Invivogen (cat #thpd-kotrex). The THP1-Dual™ KO-TREX1 cells were cultured in RPMI 1640, 10% heat-inactivated fetal bovine serum, 25 mM HEPES, 10 μg/mL Blasticidin, and […] Zeocin. THP1-Dual™ KO-TREX cells were treated with a dose titration of test compound in the presence of 1 μM 5-aza-2′-deoxycytidine (Sigma, cat #189825). Type 1 Interferon and cell viability were assessed after five days of treatment.
Stock solution of test compound was prepared in DMSO followed by a three-fold dilution in DMSO. Additional 50× dilution was prepared in cell culture media for each dilution. 10 μL of diluted test compound was then added to a 384-well plate.
THP1-Dual™ KO-TREX1 cells were treated with 1 μM 5-aza-2′-deoxycytidine. THP1-Dual™ KO-TREX1 cells (50 μL) were added to each well of the 384-well plate containing test compound titration at 10,000 cells/well. Cells were incubated at 37° C., 5% CO2 in a humidified incubator for five days. On day five, 20 μL of cell supernatant was transferred to a 384-well, white-walled plate, followed by addition to each well of 50 μL of QUANTI-LUC solution containing stabilizer. Luminescence was detected on a plate reader according to manufacturer's instructions.
For certain compounds, the assay was run in a 96-well format, with the following modifications: • 190 μL, instead of 50 μL, of cells were added to each well, to provide 50,000 cells/well, instead of 10,000 cells/well, • Cells were incubated for 6 days, instead of 5 days, • 25 μL, instead of 20 μL, of cell supernatant was added to the white-walled plate for QUANT-LUC treatment; and • 25 μL, instead of 30 μL, of CellTiter-Glo was added to assess cell viability.
Percent inhibition of interferon was calculated using the following analysis: (Average DMSO-Sample)/(Average DMSO-Average 30 μM control reagent)*100. The control reagent for inhibition of interferon was a specific nucleoside reverse-transcriptase inhibitor with molecular weight <600 a.m.u. Percent induction of interferon was calculated using the following analysis: (Sample-Average DMSO)/(10 μM control reagent-Average DMSO)*100. The control reagent for induction of interferon was compound 8 (4′-ethynyl-2-chloro-2′-deoxyadenosine).

Assay [4] has as its target LINE1 reverse transcriptase (Homo sapiens, UniProt O00370). The experiment in a line: Stable artificial-intron Cis LINE1 reporter assay. The assay is classed as cell-based. Also on record: expressed in transfected cells. Conditions: HeLa L1 artificial-intron reporter cells, doxycycline-induced, 72 h, Firefly luciferase activity. An excerpt: A stable HeLa Tet-On 3G (Takara, cat no 631183) cell line expressing a bi-directional inducible LINE1 construct was generated as described in Xie, Y. et al. “Cell division promotes efficient retrotransposition in a stable L1 reporter cell line,” Mobile DNA (2013) 4:10. Single cell clones were screened for high Luciferase expression and the highest expression Firefly expressing clone was chosen for compound testing.
Test compounds were serially diluted in DMSO and spotted in 96-well plates. Subsequently the HeLa L1 artificial-intron reporter cells were plated into the compound-containing wells (8,000 cells/well), and the cells were induced for reporter expression with doxycycline (Sigma cat no D9891) at a final concentration of 500 ng/mL. Luminescence was measured 72 h after plating using the Dual-Glo Luciferase Assay System (Promega cat no E2940) following the manufacturer's instructions. The Firefly Luciferase activity (normalized against its activity in a control well without test compound) was used to report LINE1 activity.

Assay [5] has as its system Esophageal cancer KYSE-410 cells. Nature of the assay: Cancer cell viability assay with 3D cell colonies (CellTiter-Glo), KYSE-410. The assay is classed as cell-based. Conditions: Homo sapiens, 168 h; KYSE-410, 3D methylcellulose colonies, 7 days. On the procedure: as §1, §2

As a reminder, the pIC50 is the negative decadic logarithm of the IC50, by convention in mol/L.

pIC50: −log10 of the molar value. Some results are limits rather than exact numbers.

Chain of LINE1 reverse transcriptase (O00370 whole entry, looked up): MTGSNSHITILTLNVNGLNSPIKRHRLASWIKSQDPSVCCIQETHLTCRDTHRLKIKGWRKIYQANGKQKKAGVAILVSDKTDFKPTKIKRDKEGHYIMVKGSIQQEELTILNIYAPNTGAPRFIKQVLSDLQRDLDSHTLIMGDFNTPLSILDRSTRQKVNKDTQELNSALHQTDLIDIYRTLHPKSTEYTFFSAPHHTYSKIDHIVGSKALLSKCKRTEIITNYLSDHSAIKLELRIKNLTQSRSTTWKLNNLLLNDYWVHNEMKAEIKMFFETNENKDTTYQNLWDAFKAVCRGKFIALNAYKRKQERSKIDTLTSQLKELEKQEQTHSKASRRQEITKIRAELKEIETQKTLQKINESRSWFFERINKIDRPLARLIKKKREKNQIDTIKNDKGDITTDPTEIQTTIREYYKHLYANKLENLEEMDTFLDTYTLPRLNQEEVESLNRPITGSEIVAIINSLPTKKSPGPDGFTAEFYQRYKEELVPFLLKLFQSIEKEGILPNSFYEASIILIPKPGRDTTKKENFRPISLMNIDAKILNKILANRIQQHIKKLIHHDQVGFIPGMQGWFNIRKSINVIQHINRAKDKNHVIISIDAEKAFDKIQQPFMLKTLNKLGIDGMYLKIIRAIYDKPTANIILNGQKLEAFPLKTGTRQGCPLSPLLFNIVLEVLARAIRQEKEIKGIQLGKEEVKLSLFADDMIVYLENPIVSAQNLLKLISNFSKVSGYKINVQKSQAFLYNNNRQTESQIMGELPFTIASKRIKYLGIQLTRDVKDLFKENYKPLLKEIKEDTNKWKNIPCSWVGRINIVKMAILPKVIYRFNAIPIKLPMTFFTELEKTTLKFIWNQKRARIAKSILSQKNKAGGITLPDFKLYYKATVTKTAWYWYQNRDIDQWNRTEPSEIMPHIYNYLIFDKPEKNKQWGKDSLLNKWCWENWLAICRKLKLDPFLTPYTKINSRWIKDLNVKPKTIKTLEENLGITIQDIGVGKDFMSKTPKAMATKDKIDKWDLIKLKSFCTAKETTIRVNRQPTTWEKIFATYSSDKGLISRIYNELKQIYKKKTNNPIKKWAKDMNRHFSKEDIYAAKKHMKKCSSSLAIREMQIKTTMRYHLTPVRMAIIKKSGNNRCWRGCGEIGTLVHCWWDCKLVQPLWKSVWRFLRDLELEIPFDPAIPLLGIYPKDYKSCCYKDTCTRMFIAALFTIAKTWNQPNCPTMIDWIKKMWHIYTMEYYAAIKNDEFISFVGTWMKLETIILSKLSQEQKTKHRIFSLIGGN

As to `C#C[C@]1(CO)O[C@@H](n2cnc3c(N)nc(F)nc32)C[C@@H]1O` [islatravir, 4′-ethynyl-2-fluoro-2′-deoxyadenosine], the pIC50 in assay [1] is 4.52 to 5.00; in assay [4] it was not below 7.30; in assay [5], less than 4.52. The “interferon-stimulated gene (ISG) response” value in assay [2] is on record as “showed the change in ISG response”. Besides, the “change in IFN levels (figure)” value in assay [3] was “induction of IFN”.
